Legend:
Type in all cases: binding
[1] = molecular target: T1, JAK1 (Homo sapiens, UniProt P23458); assay: Kinobeads assay, JAK1; details: mixed Molt4/Ramos lysate, read-out: Inhibition values (IC50) JAK1
T1 construct: endogenous in cells; host or cells: Molt4 (ATCC CRL-1582) and Ramos (ATCC CRL-1596), mixed lysate 1:2
Method: After the incubation time the beads with captured proteins were separated from the lysate. Bound proteins were then eluted and the presence of JAK1, JAK2, JAK3 and TYK2 was detected and quantified using specific antibodies in a dot blot procedure and the Odyssey infrared detection system. Dose response curves for individual kinases were generated and IC50 values calculated.
(§1) 5×DP buffer: 250 mM Tris-HCl pH 7.4, 25% Glycerol, 7.5 mM MgCl2, 750 mM NaCl, 5 mM Na3VO4; filter the 5×DP buffer through a 0.22 μm filter and store in aliquots at −80° C. The 5×DP buffer is diluted with H2O to 1×DP buffer containing 1 mM DTT and 25 mM NaF.
Stock solutions of test compounds were prepared in DMSO. […] Starting with this solution a 1:3 dilution series (9 steps) was prepared. For control experiments (no test compound) a buffer containing 2% DMSO was used.
Cells were homogenized in a Potter S homogenizer in lysis buffer: 50 mM Tris-HCl, 0.8% NP40, 5% glycerol, 150 mM NaCl, 1.5 mM MgCl2, 25 mM NaF, 1 mM sodium vanadate, 1 mM DTT, pH 7.5. […] The material was dounced 10 times using a mechanized POTTER S, transferred to 50 mL falcon tubes, incubated for 30 minutes on ice and spun down for 10 minutes at 20,000 g at 4° C. (10,000 rpm in Sorvall SLA600, precooled). […] (33.500 rpm in Ti50.2, precooled). The supernatant was transferred again to a fresh 50 mL falcon tube, the protein concentration was determined by a Bradford assay (BioRad) and samples containing 50 mg of protein per aliquot were prepared. The samples were immediately used for experiments or frozen in liquid nitrogen and stored frozen at −80° C.
Cell lysate (approximately 50 mg protein per plate) was thawed in a water bath at room temperature and then stored on ice. […] The diluted cell lysate was stored on ice. Mixed Molt4/Ramos lysate was prepared by combining one volume of Molt4 lysate and two volumes of Ramos lysate (ratio 1:2).
Plates were sealed and incubated for 3 hours in a cold room on a plate shaker (Heidolph tiramax 1000) at 750 rpm. Afterwards the plate was washed 3 times with 230 μL washing buffer (1×DP 0.4% NP40). […] The eluate was frozen quickly at −80° C. and stored at −20° C.
Afterwards the membrane was washed twice for 10 minutes with PBS buffer containing 0.2% Tween 20 at room temperature. […] Afterwards the membrane was washed twice for 10 minutes each with 1×PBS buffer containing 0.2% Tween 20 at room temperature. Then the membrane was rinsed once with PBS buffer to remove residual Tween 20. The membrane was kept in PBS buffer at 4° C. and then scanned with the Odyssey instrument. Fluorescence signals were recorded and analysed according to the instructions of the manufacturer.

[2] = molecular target: T2, JAK2 (Homo sapiens, UniProt O60674); assay: Kinobeads assay, JAK2; details: mixed Molt4/Ramos lysate, read-out: Inhibition values (IC50) JAK2
T2 construct: endogenous in cells; host or cells: Molt4 (ATCC CRL-1582) and Ramos (ATCC CRL-1596), mixed lysate 1:2
Method: (§2) The compounds of the present invention as described in the previous examples were tested in a Kinobeads™ assay as described for ZAP-70 (WO-A 2007/137867). Briefly, test compounds (at various concentrations) and the affinity matrix with the immobilized aminopyrido-pyrimidine ligand 24 were added to cell lysate aliquots and allowed to bind to the proteins in the lysate sample. After the incubation time the beads with captured proteins were separated from the lysate. Bound proteins were then eluted and the presence of JAK1, JAK2, JAK3 and TYK2 was detected and quantified using specific antibodies in a dot blot procedure and the Odyssey infrared detection system. Dose response curves for individual kinases were generated and IC50 values calculated. Kinobeads™ assays for ZAP-70 (WO-A 2007/137867) and for kinase selectivity profiling (WO-A 2006/134056) have been previously described.
(§3) The affinity matrix was washed two times with 15 mL of lx DP buffer containing 0.2% NP40 (IGEPAL® CA-630, Sigma, #13021) and then resuspended in 1×DP buffer containing 0.2% NP40 (3% beads slurry).
as §1
(§4) Stock solutions of test compounds were prepared in DMSO. In a 96 well plate […] solution of diluted test compounds at 5 mM in DMSO were prepared. Starting with this solution a 1:3 dilution series (9 steps) was prepared. For control experiments (no test compound) a buffer containing 2% DMSO was used.
(§5) Molt4 cells (ATCC catalogue number CRL-1582) and Ramos cells (ATCC catalogue number CRL-1596) were grown in 1 L Spinner flasks (Integra Biosciences, #182101) in suspension in RPMI 1640 medium (Invitrogen, #21875-034) supplemented with 10% Fetal Bovine Serum (Invitrogen) at a density between 0.15×10^6 and 1.2×10^6 cells/mL. Cells were harvested by centrifugation, washed once with 1×PBS buffer (Invitrogen, #14190-094) and cell pellets were frozen in liquid nitrogen and subsequently stored at −80° C. Cells were homogenized in a Potter S homogenizer in lysis buffer: 50 mM Tris-HCl, 0.8% NP40, 5% glycerol, 150 mM NaCl, 1.5 mM MgCl2, 25 mM NaF, 1 mM sodium vanadate, 1 mM DTT, pH 7.5. One complete EDTA-free tablet (protease inhibitor cocktail, Roche Diagnostics, 1873580) per 25 mL buffer was added. The material was dounced 10 times using a mechanized POTTER S, transferred to 50 mL falcon tubes, incubated for 30 minutes on ice and spun down for 10 minutes at 20,000 g at 4° C. (10,000 rpm in Sorvall SLA600, precooled). The supernatant was transferred to an ultracentrifuge (UZ)-polycarbonate tube (Beckmann, 355654) and spun for 1 hour at 100.000 g at 4° C. (33.500 rpm in Ti50.2, precooled). The supernatant was transferred again to a fresh 50 mL falcon tube, the protein concentration was determined by a Bradford assay (BioRad) and samples containing 50 mg of protein per aliquot were prepared. The samples were immediately used for experiments or frozen in liquid nitrogen and stored frozen at −80° C.
(§6) Cell lysate (approximately 50 mg protein per plate) was thawed in a water bath at room temperature and then stored on ice. To the thawed cell lysate 1×DP 0.8% NP40 buffer containing protease inhibitors (1 tablet for 25 mL buffer; EDTA-free protease inhibitor cocktail; Roche Diagnostics 1873580) was added in order to reach a final protein concentration of 10 mg/mL total protein. The diluted cell lysate was stored on ice. Mixed Molt4/Ramos lysate was prepared by combining one volume of Molt4 lysate and two volumes of Ramos lysate (ratio 1:2).
(§7) To a 96 well filter plate (Multiscreen HTS, BV Filter Plates, Millipore #MSBVN1250) were added per well: 100 μL affinity matrix (3% beads slurry), […], of compound solution, and 50 μL of diluted lysate. […]

[3] = molecular target: T3, TYK2 (Homo sapiens, UniProt P29597); assay: Kinobeads assay, TYK2; details: mixed Molt4/Ramos lysate, read-out: Inhibition values (IC50) TYK2
T3 construct: endogenous in cells; host or cells: Molt4 (ATCC CRL-1582) and Ramos (ATCC CRL-1596), mixed lysate 1:2
Method: as §2, §3, §1, §4, §5, §6, §7

T2 sequence (O60674 whole entry): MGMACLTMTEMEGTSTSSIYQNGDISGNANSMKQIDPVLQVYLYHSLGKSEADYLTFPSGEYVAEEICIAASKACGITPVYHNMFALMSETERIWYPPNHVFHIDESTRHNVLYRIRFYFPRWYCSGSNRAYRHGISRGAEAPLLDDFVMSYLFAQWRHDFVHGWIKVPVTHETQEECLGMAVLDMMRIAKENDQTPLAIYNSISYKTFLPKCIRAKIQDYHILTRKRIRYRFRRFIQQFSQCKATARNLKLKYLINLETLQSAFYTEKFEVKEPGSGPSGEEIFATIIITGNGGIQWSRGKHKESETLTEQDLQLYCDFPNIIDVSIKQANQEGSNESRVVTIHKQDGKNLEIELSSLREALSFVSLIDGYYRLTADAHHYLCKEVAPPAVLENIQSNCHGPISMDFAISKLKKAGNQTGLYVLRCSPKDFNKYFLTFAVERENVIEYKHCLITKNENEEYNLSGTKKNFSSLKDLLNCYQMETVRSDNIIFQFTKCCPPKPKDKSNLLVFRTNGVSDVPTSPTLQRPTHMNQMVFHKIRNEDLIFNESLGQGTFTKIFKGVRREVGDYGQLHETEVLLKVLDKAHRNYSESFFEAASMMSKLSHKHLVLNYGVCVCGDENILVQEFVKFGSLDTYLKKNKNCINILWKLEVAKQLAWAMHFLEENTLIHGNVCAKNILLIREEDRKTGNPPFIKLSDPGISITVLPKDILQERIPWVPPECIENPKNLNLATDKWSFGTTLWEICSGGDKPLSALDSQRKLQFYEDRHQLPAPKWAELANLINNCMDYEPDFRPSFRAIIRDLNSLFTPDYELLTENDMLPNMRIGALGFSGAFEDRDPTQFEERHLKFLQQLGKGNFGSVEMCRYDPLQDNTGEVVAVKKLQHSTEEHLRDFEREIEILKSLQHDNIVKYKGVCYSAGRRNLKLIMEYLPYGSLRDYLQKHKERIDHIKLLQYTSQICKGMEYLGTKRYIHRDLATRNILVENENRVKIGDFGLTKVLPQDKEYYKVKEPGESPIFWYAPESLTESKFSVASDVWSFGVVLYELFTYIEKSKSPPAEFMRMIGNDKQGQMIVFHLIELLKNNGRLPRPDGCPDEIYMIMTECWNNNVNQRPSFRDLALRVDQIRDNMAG
T3 sequence (P29597 whole entry): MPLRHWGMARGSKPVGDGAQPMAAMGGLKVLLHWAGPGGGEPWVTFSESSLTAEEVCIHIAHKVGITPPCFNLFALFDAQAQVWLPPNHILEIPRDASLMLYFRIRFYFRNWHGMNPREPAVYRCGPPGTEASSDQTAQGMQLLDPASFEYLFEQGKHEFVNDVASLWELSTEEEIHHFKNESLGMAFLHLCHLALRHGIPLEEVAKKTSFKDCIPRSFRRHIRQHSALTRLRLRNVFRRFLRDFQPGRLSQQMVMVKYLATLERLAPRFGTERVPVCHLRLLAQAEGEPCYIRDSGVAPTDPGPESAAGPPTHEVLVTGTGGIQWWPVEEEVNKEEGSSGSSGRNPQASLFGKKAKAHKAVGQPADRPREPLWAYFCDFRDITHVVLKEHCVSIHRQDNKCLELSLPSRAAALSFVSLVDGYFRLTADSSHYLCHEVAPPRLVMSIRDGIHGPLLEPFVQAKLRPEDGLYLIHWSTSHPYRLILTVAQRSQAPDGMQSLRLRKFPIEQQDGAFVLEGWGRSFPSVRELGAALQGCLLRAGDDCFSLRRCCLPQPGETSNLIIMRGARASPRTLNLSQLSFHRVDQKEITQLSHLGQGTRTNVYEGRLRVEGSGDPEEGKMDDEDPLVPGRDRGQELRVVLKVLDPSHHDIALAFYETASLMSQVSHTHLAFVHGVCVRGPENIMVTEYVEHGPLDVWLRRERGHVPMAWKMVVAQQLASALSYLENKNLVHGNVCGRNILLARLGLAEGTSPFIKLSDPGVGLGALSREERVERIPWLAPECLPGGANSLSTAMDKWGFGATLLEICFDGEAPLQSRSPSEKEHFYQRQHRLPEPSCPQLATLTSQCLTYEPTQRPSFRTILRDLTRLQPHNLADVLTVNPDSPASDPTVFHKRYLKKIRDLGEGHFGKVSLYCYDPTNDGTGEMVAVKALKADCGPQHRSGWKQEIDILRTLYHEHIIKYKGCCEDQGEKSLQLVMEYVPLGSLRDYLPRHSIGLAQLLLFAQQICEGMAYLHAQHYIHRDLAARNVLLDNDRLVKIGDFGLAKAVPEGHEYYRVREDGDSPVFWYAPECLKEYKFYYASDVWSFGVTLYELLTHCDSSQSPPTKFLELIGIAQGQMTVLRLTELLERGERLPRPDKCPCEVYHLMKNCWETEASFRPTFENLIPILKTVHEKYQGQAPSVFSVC
T1 sequence (P23458 whole entry): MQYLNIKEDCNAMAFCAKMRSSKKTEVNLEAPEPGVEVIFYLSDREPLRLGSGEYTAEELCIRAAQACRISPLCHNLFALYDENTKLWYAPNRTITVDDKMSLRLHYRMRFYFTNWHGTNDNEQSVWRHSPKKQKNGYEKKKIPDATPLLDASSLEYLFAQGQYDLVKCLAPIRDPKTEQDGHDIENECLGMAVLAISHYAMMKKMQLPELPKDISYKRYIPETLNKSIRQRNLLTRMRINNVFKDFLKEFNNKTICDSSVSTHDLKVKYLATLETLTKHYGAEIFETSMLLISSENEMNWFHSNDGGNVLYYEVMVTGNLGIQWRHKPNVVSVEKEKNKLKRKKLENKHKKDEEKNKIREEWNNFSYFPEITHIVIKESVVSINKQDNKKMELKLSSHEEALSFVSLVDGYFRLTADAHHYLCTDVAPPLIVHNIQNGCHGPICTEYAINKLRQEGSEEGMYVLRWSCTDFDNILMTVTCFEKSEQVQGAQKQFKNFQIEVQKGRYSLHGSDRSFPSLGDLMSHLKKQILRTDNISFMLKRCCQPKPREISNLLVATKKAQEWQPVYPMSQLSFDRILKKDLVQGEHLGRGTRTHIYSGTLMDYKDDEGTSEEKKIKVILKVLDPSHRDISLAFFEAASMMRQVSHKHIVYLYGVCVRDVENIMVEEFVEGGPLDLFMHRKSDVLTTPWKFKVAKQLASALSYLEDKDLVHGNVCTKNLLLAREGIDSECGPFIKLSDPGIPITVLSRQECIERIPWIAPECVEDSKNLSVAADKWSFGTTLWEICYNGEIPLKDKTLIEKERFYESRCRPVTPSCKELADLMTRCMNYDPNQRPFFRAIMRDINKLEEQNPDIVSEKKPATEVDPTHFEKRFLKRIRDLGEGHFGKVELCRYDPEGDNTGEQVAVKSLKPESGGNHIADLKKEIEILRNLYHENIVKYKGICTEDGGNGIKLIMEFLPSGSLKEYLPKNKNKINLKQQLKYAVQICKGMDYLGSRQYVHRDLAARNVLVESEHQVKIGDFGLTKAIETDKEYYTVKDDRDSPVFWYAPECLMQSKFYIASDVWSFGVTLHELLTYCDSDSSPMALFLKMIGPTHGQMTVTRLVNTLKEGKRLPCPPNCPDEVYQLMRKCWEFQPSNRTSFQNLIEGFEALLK

| Compound | IC50 [1] | IC50 [2] | IC50 [3] |
| --- | --- | --- | --- |
| CNC(=O)Cn1cc(Nc2ncc(Cl)c(NC(CO)c3ccccc3Cl)n2)cn1 (stereo not drawn) [Compound 119] | 0.1 to 1 µM | 1 to 10 µM | 1 to 10 µM |
| OCCn1cc(Nc2ncc(Cl)c(NC(CO)c3ccccc3Cl)n2)cn1 (stereo not drawn) [Compound 120] | 0.1 to 1 µM | 1 to 10 µM | 0.1 to 1 µM |
| Cn1cc(Nc2ncc(Cl)c(NC(CO)c3cc(F)cc(F)c3)n2)cn1 (stereo not drawn) [Compound 121] | 0.1 to 1 µM | 1 to 10 µM | 1 to 10 µM |
| OCCn1cc(Nc2ncc(Cl)c(NC(CO)c3cc(F)cc(F)c3)n2)cn1 (stereo not drawn) [Compound 122] | 0.1 to 1 µM | 0.1 to 1 µM | 0.1 to 1 µM |
| CNC(=O)Cn1cc(Nc2ncc(Cl)c(NC(CO)c3cc(F)cc(F)c3)n2)cn1 (stereo not drawn) [Compound 123] | 0.1 to 1 µM | 1 to 10 µM | 1 to 10 µM |
| Cn1cc(Nc2ncc(Cl)c(NC(CO)c3cccc(N4CCOCC4=O)c3)n2)cn1 (stereo not drawn) [Compound 124] | 1 to 10 µM | ≥ 10 µM | 1 to 10 µM |
| CCC(Nc1nc(Nc2cnn(C)c2)ncc1Cl)c1ccccc1F (stereo not drawn) [Compound 125] | 1 to 10 µM | 1 to 10 µM | 1 to 10 µM |
| CCC(Nc1nc(Nc2cnn(CC(N)=O)c2)ncc1Cl)c1ccccc1F (stereo not drawn) [Compound 126] | 0.1 to 1 µM | 1 to 10 µM | 1 to 10 µM |
| CN(C)C(=O)C(Nc1nc(Nc2cnn(CCO)c2)ncc1Cl)c1ccccc1F (stereo not drawn) [Compound 127] | 1 to 10 µM | 1 to 10 µM | 1 to 10 µM |
| O=C(NCC(F)(F)F)C(Nc1nc(Nc2cnn(CCO)c2)ncc1Cl)c1ccccc1F (stereo not drawn) [Compound 128] | 1 to 10 µM | ≥ 10 µM | 1 to 10 µM |
| Cn1cc(Nc2ncc(Cl)c(NC(CO)c3cc(F)ccc3F)n2)cn1 (stereo not drawn) [Compound 129] | 0.1 to 1 µM | 0.1 to 1 µM | 0.1 to 1 µM |
| CNC(=O)Cn1cc(Nc2ncc(Cl)c(NC(CO)c3cc(F)ccc3F)n2)cn1 (stereo not drawn) [Compound 130] | < 0.1 µM | 0.1 to 1 µM | 0.1 to 1 µM |
| CNC(=O)Cn1cc(Nc2ncc(Cl)c(NC(CO)c3ccccc3C(F)(F)F)n2)cn1 (stereo not drawn) [Compound 131] | 1 to 10 µM | 1 to 10 µM | 0.1 to 1 µM |
| NC(=O)Cn1cc(Nc2ncc(Cl)c(NC(CO)c3cc(F)ccc3F)n2)cn1 (stereo not drawn) [Compound 132] | < 0.1 µM | 0.1 to 1 µM | 0.1 to 1 µM |
| CNC(=O)Cn1cc(Nc2ncc(C)c(N[C@H](CO)c3ccccc3)n2)cn1 [Compound 133] | 1 to 10 µM | 1 to 10 µM | 1 to 10 µM |
| Cc1cnc(Nc2cnn(CC(=O)N(C)C)c2)nc1N[C@H](CO)c1ccccc1 [Compound 134] | 0.1 to 1 µM | 1 to 10 µM | 1 to 10 µM |

| Compound | IC50 [1] | IC50 [2] | IC50 [3] |
| --- | --- | --- | --- |
| CN1CCC(n2cc(Nc3ncc(Cl)c(N[C@H](CO)c4ccccc4)n3)cn2)C1=O (stereo partly drawn) [Compound 135] | 0.1 to 1 µM | 1 to 10 µM | 1 to 10 µM |
| Cn1cc(Nc2ncc(Cl)c(N[C@H](CO)c3cccc(-c4cnn(C)c4)c3)n2)cn1 [Compound 136] | > 10 µM | ≥ 10 µM | ≥ 10 µM |
| Cn1cc(Nc2ncc(Cl)c(N[C@H](CO)c3cc(F)cc(-c4cnn(C)c4)c3)n2)cn1 [Compound 137] | 1 to 10 µM | 1 to 10 µM | 1 to 10 µM |
| Cn1cc(Nc2ncc(Cl)c(N[C@H](CO)c3cccc(N4CCOCC4=O)c3)n2)cn1 [Compound 138] | 1 to 10 µM | ≥ 10 µM | 1 to 10 µM |
| Cn1cc(Nc2ncc(Cl)c(N[C@H](CO)c3cc(F)ccc3F)n2)cn1 [Compound 139] | 0.1 to 1 µM | 0.1 to 1 µM | 0.1 to 1 µM |
| NC(=O)Cn1cc(Nc2ncc(Cl)c(N[C@H](CO)c3cc(F)ccc3F)n2)cn1 [Compound 140] | < 0.1 µM | 0.1 to 1 µM | 0.1 to 1 µM |
| CNC(=O)Cn1cc(Nc2ncc(Cl)c(N[C@H](CO)c3cc(F)ccc3F)n2)cn1 [Compound 141] | < 0.1 µM | 0.1 to 1 µM | 0.1 to 1 µM |
| Cn1cc(Nc2ncc(Cl)c(N[C@H](CO)c3cc(F)cc(F)c3)n2)cn1 [Compound 142] | 0.1 to 1 µM | 0.1 to 1 µM | 1 to 10 µM |
| OCCn1cc(Nc2ncc(Cl)c(N[C@H](CO)c3cc(F)cc(F)c3)n2)cn1 [Compound 143] | < 0.1 µM | 0.1 to 1 µM | 0.1 to 1 µM |
| NC(=O)Cn1cc(Nc2ncc(Cl)c(N[C@H](CO)c3cc(F)cc(F)c3)n2)cn1 [Compound 144] | < 0.1 µM | 0.1 to 1 µM | 0.1 to 1 µM |
| CNC(=O)Cn1cc(Nc2ncc(Cl)c(N[C@H](CO)c3cc(F)cc(F)c3)n2)cn1 [Compound 145] | < 0.1 µM | 0.1 to 1 µM | 0.1 to 1 µM |
| Cn1cc(Nc2ncc(F)c(N[C@H](CO)c3cc(F)ccc3F)n2)cn1 [Compound 146] | 0.1 to 1 µM | 1 to 10 µM | 0.1 to 1 µM |
| OCCn1cc(Nc2ncc(F)c(N[C@H](CO)c3cc(F)ccc3F)n2)cn1 [Compound 147] | 0.1 to 1 µM | 0.1 to 1 µM | 0.1 to 1 µM |
| CNC(=O)Cn1cc(Nc2ncc(F)c(N[C@H](CO)c3cc(F)ccc3F)n2)cn1 [Compound 148] | 0.1 to 1 µM | 1 to 10 µM | 0.1 to 1 µM |
| Cc1cnc(Nc2cnn(C)c2)nc1N[C@H](CO)c1cccc(-c2cnn(C)c2)c1 [Compound 149] | > 10 µM | ≥ 10 µM | ≥ 10 µM |
| Cn1cc(Nc2ncc(F)c(N[C@H](CO)c3cc(F)cc(-c4cnn(C)c4)c3)n2)cn1 [Compound 150] | 1 to 10 µM | ≥ 10 µM | ≥ 10 µM |

Source: patent publication US20140179664A1, “Heterocyclyl Pyrimidine Analogues As JAK Inhibitors” (Cellzome Limited, priority 2011, published 2014)
